Earlier results, collected in the CATMoS acute toxicity set (Mansouri et al. 2021).
Where “and” joins values, the source holds several entries; their conditions need not be identical. Equal values may be shown once.

test: rat acute oral toxicity; conditions: in vivo

| Structure (SMILES) | LD50 |
| --- | --- |
| CCN(CC)c1ccc(-c2nc(=O)n(C)nc2-c2ccc(N(CC)CC)cc2)cc1 | 650 mg/kg |
| CCCOC(=O)CC(SP(=S)(OC)OC)C(=O)OCCC (stereo unspecified) | 6000 mg/kg |
| O=C(O)CN(CCO)CCN(CC(=O)O)CC(=O)O | 10000 mg/kg |
| C[N+]1(CC2COC(c3ccccc3)(C3CCCCC3)O2)CCCCC1 (stereo unspecified) | 494 mg/kg |
| CCOC(=O)c1cnn(C)c1-n1cnc2ccccc2c1=O | 1760 mg/kg |
| COP(=S)(OC)SCCSC | 75 mg/kg |
| OCCCc1ccccc1 | 2300 mg/kg |
| CCCCCC/C=C/C1CC(=O)OC1=O (stereo unspecified) | 1100 mg/kg |
| CNC(C)CC1CCCCC1 (stereo unspecified) | 83 mg/kg |
| Cc1cc(Cl)ccc1OCC(=O)OCCCCCC(C)C | 700 mg/kg |
| C=CC(N)CCC(=O)O (stereo unspecified) | 3000 mg/kg |
| Fc1ccc(Br)cc1 | 2700 mg/kg |
| OCCN(CCO)c1nc(-c2ccccc2)c(-c2ccccc2)o1 | 11400 mg/kg |
| C#CCc1cc(COC(=O)C2C(C=C(C)C)C2(C)C)c(C)o1 (stereo unspecified) | 14000 mg/kg |
| COc1cc(C(C)=O)ccc1OCCCCN1CCN(c2ccccc2)CC1 | 573 mg/kg |
| CSc1nc(N=[N+]=[N-])nc(NC(C)C)n1 | 3600 mg/kg |
| CC(C)c1cccc(OC(=O)N(C)N=O)c1 | 400 mg/kg |
| Nc1ncnc2c1ncn2[C@]1(CO)O[C@H](CO)[C@@H](O)[C@H]1O | 10000 mg/kg |
| CON(C)C(=O)CC(SP(=S)(OC)OC)C(=O)N(C)OC (stereo unspecified) | 14 mg/kg |
| CCc1occc(=O)c1O | 1150 mg/kg |
| CCOC(=O)c1cnn(C)c1-n1c(CC)nc2ccccc2c1=O | 1820 mg/kg |
| NC(=S)Nc1ccccc1 | 3 mg/kg |
| CCCCC(C)(C)[C@H](O)C=C[C@H]1[C@H](O)CC(=O)[C@@H]1CCCCC=CC(=O)OC | 56.5 mg/kg |
| CCOP(=S)(OCC)OCCSCC | 7.5 mg/kg |
| CCC=CC=CC=O | 1150 mg/kg |

| Structure (SMILES) | LD50 |
| --- | --- |
| CC(C(=O)O)c1ccc(N2CC=CC2)c(Cl)c1 (stereo unspecified) | 351 mg/kg |
| CC1NCCOC1c1ccccc1 (stereo unspecified) | 370 mg/kg and 165 mg/kg |
| C=CCn1c(N)cc(=O)n(CC)c1=O | 2300 mg/kg |
| CCCCCN(C)N=O | 120 mg/kg |
| COC(=O)N/N=C/c1c[n+]([O-])c2ccccc2[n+]1[O-] | 850 mg/kg |
| N#CC(OC1OC(COC2OC(CO)C(O)C(O)C2O)C(O)C(O)C1O)c1ccccc1 (stereo unspecified) | 517 mg/kg |
| Nc1c(Br)cc([N+](=O)[O-])cc1[N+](=O)[O-] | 4100 mg/kg |
| CC(Cl)(CCl)C(=O)O (stereo unspecified) | 8000 mg/kg |
| CCCCC[C@H](O)/C=C/[C@H]1[C@H](O)CC(=O)[C@@H]1CCCCCCC(=O)O | 228 mg/kg |
| CCCCCCC(=O)OCCN1CCN(CCCN2c3ccccc3Sc3ccc(C(F)(F)F)cc32)CC1 | 230 mg/kg |
| O=C(O)C(F)(F)C(F)(F)C(F)(F)C(F)(F)C(F)(F)C(F)F | 1440 mg/kg |
| CCN(Cc1ccccc1)N=O | 250 mg/kg |
| COC(=O)C=C(C)N | 1760 mg/kg |
| COS(C)(=O)=O | 225 mg/kg |
| CCOP(=S)(OCC)N(SN(C)C(=O)ON=C(C)SC)C(C)C | 325 mg/kg |
| CCNc1nc(NCC)nc(OC)n1 | 535 mg/kg |
| O=COCCOC=O | 1510 mg/kg |
| Cn1c(=O)on(-c2ccc(Cl)c(Cl)c2)c1=O | 777 mg/kg |
| C=CCOc1ccccc1OC(=O)NC | 200 mg/kg |
| O=C(c1ccccc1)c1ccc2n1CC[C@H]2C(=O)O | 189 mg/kg |
| CCCC(C)(COC(N)=O)COC(=O)NC(C)C (stereo unspecified) | 1320 mg/kg |
| Nc1ccc(C(=O)c2ccccc2)c(C(=O)O)c1 | 5400 mg/kg |
| CCOC(=O)Nc1ccco1 | 1980 mg/kg |
| C=CCl | 500 mg/kg |
| COc1ccc(C(=C(c2ccccc2)[N+](=O)[O-])c2ccc(OCCN3CCCC3)cc2)cc1 | 1780 mg/kg |

| Structure (SMILES) | LD50 |
| --- | --- |
| CC(O)(c1ccc(Cl)cc1)c1ccc(Cl)cc1 | 500 mg/kg |
| CCCSc1cc(Oc2ccc([N+](=O)[O-])cc2)ccc1Cl | 1130 mg/kg |
| Cc1c(C(C)C)c(=O)n(-c2ccccc2)n1C | 860 mg/kg |
| Fc1cc2[nH]c(C(F)(F)F)nc2cc1Cl | 8.66 mg/kg |
| O=C(O)c1cn(C2CC2)c2cc(Cl)c(F)cc2c1=O | 583 mg/kg |
| N#CSCCSC#N | 50 mg/kg |
| Cc1ccccc1OCC(O)CO (stereo unspecified) | 625 mg/kg |
| Clc1ccc(OCC2=NCCN2)cc1Cl | 100 mg/kg |
| O=C1C2C3C=C(C(O)(c4ccccc4)c4ccccn4)C(C3=C(c3ccccc3)c3ccccn3)C2C(=O)N1Cc1ccccn1 (stereo unspecified) | 5.2 mg/kg |
| CC(=O)OC(C)=O | 1780 mg/kg |
| CC(OCCCl)OCCCl | 310 mg/kg |
| COC(C)=NC#N | 432 mg/kg |
| CCC(=O)OCC(=O)[C@@]1(OC(=O)CC)[C@H](C)C[C@H]2[C@H]3[C@H]([C@@H](O)C[C@@]21C)[C@@]1(C)C=CC(=O)C=C1C[C@H]3Cl | 3590 mg/kg |
| CCO[Si](CNCCCCCCN)(OCC)OCC | 500 mg/kg |
| FC(F)(F)c1nc2c(Cl)c(Cl)ccc2[nH]1 | 13.1 mg/kg |
| COP(=S)(OC)SC(C)N1CC(=O)C(=O)C1 (stereo unspecified) | 5.6 mg/kg |
| O=[N+]([O-])c1cccc2[nH]c(C(F)(F)F)nc12 | 10.6 mg/kg |
| CCc1ccc(C)cc1 | 4850 mg/kg |
| CCCCNS(=O)(=O)c1ccccc1 | 2050 mg/kg |
| CC(=O)SCCCCCCSC(C)=O | 504 mg/kg |
| CC(=O)CCCCn1c(=O)c2c(ncn2C)n(C)c1=O | 1170 mg/kg |
| CCCCOC(=O)C1CCC(C(=O)OCCCC)C1 (stereo unspecified) | 6500 mg/kg |
| CCCCC(CC)COC(=O)CS (stereo unspecified) | 303 mg/kg |
| O=[N+]([O-])c1cc(I)c(O)c(I)c1 | 170 mg/kg |
| N#CCc1ccc(Cl)cc1 | 50 mg/kg |

| Structure (SMILES) | LD50 |
| --- | --- |
| CCN(CC)CCN | 2830 mg/kg |
| O=C(OCCOC(=O)c1ccccc1)c1ccccc1 | 5340 mg/kg |
| O=C1C2C3CCC(C3)C2C(=O)N1CCCCN1CCN(c2ncccn2)CC1 (stereo unspecified) | 590 mg/kg |
| NCCCCCCCCCCC(=O)O | 14700 mg/kg |
| OCC(O)CN1CCN(c2ccccc2)CC1 (stereo unspecified) | 750 mg/kg |
| CCCCCCC[N+](CC)(CC)CCCCc1ccc(Cl)cc1 | 456 mg/kg |
| Oc1ccc(-c2ccccc2)cc1CN1CCCCC1 | 30 mg/kg |
| Cc1cc(=O)[nH]c(=S)[nH]1 | 1500 mg/kg |
| CN(CCO)c1ccc(N=Nc2c(Cl)cc([N+](=O)[O-])cc2Cl)cc1 | 2820 mg/kg |
| CC1(C)CC(N2C(C)(C)CC(N)CC2(C)C)CC(C)(C)N1 | 2170 mg/kg |
| C=C(Cl)C#N | 25 mg/kg |
| C=CC(=C)CCCC(C)(C)OC(C)=O | 6300 mg/kg |
| C#CCN(C)Cc1ccccc1 | 250 mg/kg and 300 mg/kg |
| CCC(C)C1(CC)C(O)=NC(=O)N=C1O (stereo unspecified) | 78 mg/kg |
| Cc1ccc(S(=O)(=O)N(C)N=O)cc1 | 2700 mg/kg |
| Cc1nc2cnc3ccccc3c2s1 | 900 mg/kg and 950 mg/kg |
| COCCNC(=O)c1nc2c(N)nc(-c3ccccc3)nc2nc1NCCOC | 5010 mg/kg |
| CN(C)C(CSS(=O)(=O)c1ccccc1)CSS(=O)(=O)c1ccccc1 | 1100 mg/kg |
| N=C(N)NN=C1C=CC(=NNC(N)=S)C=C1 | 750 mg/kg |
| FC(F)(F)c1nc2c(Br)c(Cl)c(Cl)cc2[nH]1 | 2.21 mg/kg |
| Cn1c(=O)c2c(ncn2CCCCN2CCN(c3ccc(F)cc3)CC2)n(C)c1=O | 353 mg/kg |
| Cc1cc(Cl)ccc1NC(=S)N(C)C | 2500 mg/kg |
| CCCCCCCCCCCCOC(=O)c1ccccc1 | 34500 mg/kg |
| CN1CCC(OC(=O)C2CCc3cc(C4CCCCC4)ccc32)CC1 (stereo unspecified) | 572 mg/kg |
| Nc1cc([N+](=O)[O-])ccc1O | 2400 mg/kg |

| Structure (SMILES) | LD50 |
| --- | --- |
| c1ccc(C2(c3ccccc3)CC2C2=NCCN2)cc1 (stereo unspecified) | 359 mg/kg |
| CC(C)COCC(C)O (stereo unspecified) | 4290 mg/kg |
| N#CCC(N)=O | 3200 mg/kg |
| CC(CCN(C)C)N(C)C (stereo unspecified) | 750 mg/kg |
| CN1CCC2(C)c3cc(OC(=O)NCCCCCCCCCCN4CCOCC4)ccc3N(C)C12 (stereo unspecified) | 40 mg/kg |
| COc1c(OP(=O)(OC(C)C)OC(C)C)cnn(C)c1=O | 1.9 mg/kg |
| CCCCc1c(C)nc(NCC)nc1OS(=O)(=O)N(C)C | 4000 mg/kg |
| OC(CCN1CCCCC1)(c1ccccc1)C1CCCC1 (stereo unspecified) | 628 mg/kg |
| COc1ccc(N=NN(C)C)cc1 | 347 mg/kg |
| O=C1c2ccccc2S(=O)(=O)N1CCCCNC[C@H]1CCc2ccccc2O1 | 324 mg/kg |
| O=C(O)C1=Cc2sc(Cn3ccnc3)cc2CC1 | 1880 mg/kg |
| Ic1nc(I)c(I)[nH]1 | 278 mg/kg |
| COP(=O)(OC)OC(=CBr)c1ccc(Cl)cc1Cl | 225 mg/kg |
| O=C(O)c1ccccc1Cl | 1140 mg/kg |
| COC(=O)c1ccc(NC(C)=O)o1 | 1200 mg/kg |
| c1ccc(Oc2nncc3ccccc23)cc1 | 1000 mg/kg |
| O=S(=O)(O)c1ccccc1C=Cc1ccc(-c2ccc(C=Cc3ccccc3S(=O)(=O)O)cc2)cc1 | 5580 mg/kg |
| CCN(CC)CCC(CC=C(C)C)(C(N)=O)c1cccc2ccccc12 (stereo unspecified) | 71 mg/kg |
| COc1ccc(C=C2C(=O)N=C3c4ccccc4N=CN23)cc1 | 258 mg/kg |
| CN(C(=O)CN(CCO)CC(=O)N(C)C(C)(C)Cc1ccccc1)C(C)(C)Cc1ccccc1 | 1000 mg/kg and 675 mg/kg |
| CCCCC(CC)COCCC(=O)O (stereo unspecified) | 3730 mg/kg |
| CCCC(=O)N(C)C(=O)Oc1cc(C)cc(C(C)C)c1 | 1220 mg/kg |
| COP(=S)(OC)SCN1C(=O)CCC1=O | 7 mg/kg |
| NCCNCCNCc1ccccc1O | 2300 mg/kg |
| CC(C)NNC(=O)COc1ccc(Cl)cc1 | 550 mg/kg |

| Structure (SMILES) | LD50 |
| --- | --- |
| O=C1C(Cl)C2(Cl)C3C(Cl)OCC3C1(Cl)C2(Cl)Cl (stereo unspecified) | 100 mg/kg |
| CN(C)C(=O)Oc1ccc[n+](C)c1 | 37.5 mg/kg |
| Cc1ccc(N(CC2=NCCN2)c2cccc(O)c2)cc1 | 1250 mg/kg |
| COc1c(OP(=S)(Oc2cnn(C)c(=O)c2OC)OC(C)C)cnn(C)c1=O | 100 mg/kg |
| O=C(Nc1ccc(O)cc1)c1ccccc1O | 6700 mg/kg |
| COc1cc(CCC(C)=O)ccc1O | 2580 mg/kg |
| O=c1[nH]c2c(Cl)c(Cl)c(Cl)cc2o1 | 1000 mg/kg |
| C=C(Cl)c1ccc([N+](=O)[O-])cc1 | 710 mg/kg |
| CCOC(C1=NCC(C)(C)CN1)c1cccc(F)c1 (stereo unspecified) | 750 mg/kg |
| NNc1ccc(N(CCO)CCO)nn1 | 1800 mg/kg |
| O=S(=O)(O)c1cc(Cl)ccc1C=Cc1ccc(-n2nc3ccc4c(S(=O)(=O)O)cccc4c3n2)cc1S(=O)(=O)O | 19900 mg/kg |
| CC(=C\c1ccccc1)/C=C1/SC(=S)N(CC(=O)O)C1=O | 5.3 mg/kg |
| C=C(C)c1cccc(C(C)(C)N=C=O)c1 | 3100 mg/kg |
| O=S(=O)(c1cccc2cnccc12)N1CCCNCC1 | 335 mg/kg |
| CC1(C)CC2(NC(=O)N(CCCN3CCC(O)CC3)C2=O)c2cc(Cl)ccc2O1 (stereo unspecified) | 858 mg/kg |
| O=c1[nH]c2cc(Br)ccc2o1 | 1050 mg/kg |
| Cc1cccc(C)c1Nc1ncccc1C(=O)O | 2.3 mg/kg |
| C/C=C1/C[C@@H](C)[C@](O)(CO)C(=O)OCC2=CCN3CC[C@@H](OC1=O)[C@@H]23 | 34 mg/kg |
| O=C1CCc2cc(C(=O)CCN3CCC(Cc4ccccc4)CC3)ccc2N1 | 500 mg/kg |
| C/C=C\c1ccc(OCc2ccccc2)c(OC)c1 | 4900 mg/kg |
| CNC(=O)Oc1ccccc1Cl | 648 mg/kg |
